Values quoted from earlier work, collected in patent US6468469B2, “Reuse determination for high level disinfectant” (Metrex Research Corporation, priority 2000, dated 2002).

Tested on: M. tuberculosis
Conditions: alone at a concentration of up to 7.5%

## OO [hydrogen peroxide]
  kill of M. tuberculosis: does not kill
